This note sets out measurements from US20240397979A1, “METHODS FOR DELIVERING BENEFICIAL NUTRIENTS TO INVERTEBRATES THROUGH A MICROORGANISM DEFICIENT IN ANTINUTRIENTS” (APIX BIOSCIENCES, priority 2021, published 2024).

For data set [1], the system named is adult worker honey bees (Apis mellifera) or adult worker bumble bees (Bombus terrestris). Kind of data set: Two-choice preference assay: diet with ergosterol vs diet with no sterol. Type of data set: in vivo. As to conditions: feed containing ergosterol vs food without it, FIG. 1. Here is the method: Example 1. Preference Assay: Bees Avoid Ergosterol in Foods Method: Newly emerged adult worker honey bees (Apis mellifera) or adult worker bumble bees (Bombus terrestris) were tested in a two-choice preference assay in which bees had access to two diets and adlibitum access to water. One treatment diet contained the ergosterol and the other contained no sterol. Newly emerged bees were removed from the brood frame and cohorts of 30 bees per replicate were housed in plastic rearing cages. In all experiments, 10 cohorts of ˜30 bees each were used for each treatment group. In all diets carbohydrate was maintained at 60% using powdered sugar and fat was maintained at 8% using an emulsion. Consumption of each diet was measured every 24 h for 5 days. Preference index was calculated as (amount of treatment consumed-amount of control consumed)/(total amount of food consumed).

Another data set concerns Nosema ceranae. Put plainly: Nosema infection of bees fed ergosterol-containing diet. Type of data set: in vivo. The conditions noted are these: diet supplemented with ergosterol, FIG. 5. The text has this:
Method: Newly emerged adult worker honey bees (Apis mellifera) or adult worker bumble bees (Bombus terrestris) were reared in an assay to test whether diet induced an increase in Nosema ceranae infection. Bees had access to a diet composed of 15% protein, 6% fat, 78% carbohydrates and 1% vitamins and minerals and adlibitum access to water and sucrose solution. One treatment diet contained the ergosterol and the other contained no sterol. Newly emerged bees were removed from the brood frame and cohorts of 30 bees per replicate were housed in plastic rearing cages. In all experiments, 10 cohorts of ˜30 bees each were used for each treatment group. Consumption of each diet was measured every 24 h for 14 days.
Nosema ceranae infection of each cohort was produced as in Tischler et al. (2017). Briefly, Nosema spores were collected in 10 bees, concentrated and cultured. Cultures were added to 30% sucrose solutions and fed to the bees.

In a further data set the test system is adult worker honey bees. Put plainly: Survival of bee cohorts on diets containing ergosterol. It is filed as in vivo, Apis mellifera. The conditions noted are these: bees fed diets containing ergosterol, FIG. 2. From the text:
Example 2: Survival: Bees are Less Likely to Survive on Diets Containing Ergosterol Method: Newly emerged adult worker honey bees fed with a diet treatment and ad libitum access to water. The treatment diet contained the ergosterol. Newly-emerged bees were removed from the brood frame and cohorts of 30 bees per replicate were housed in plastic rearing cages. In all experiments, 10 cohorts of ˜30 bees each were used for each treatment group. In all diets carbohydrate was maintained at 60% using powdered sugar and fat was maintained at 8% using an emulsion. Consumption of each diet was measured every day over the course of the experiment. The number of bees alive in the box was counted each day for 14 days.

The next data set relates to honey bees. Put plainly: Brood production of honey bee colonies on diets with ergosterol. Type of data set: in vivo, Apis mellifera. As to conditions: bee food with ergosterol vs without, FIGS. 3 and 4. Here is the method:
Example 3 and 4. Brood Production: Honey Bees Cannot Produce Brood on Diets with high quantities of ergosterol Method: Fully functional insulated styrofoam […] nucs comprised 5 mini frames populated with adult workers and 1 mated laying queen bee were populated with 300-400 ml of young adult workers ( N<1,000 bees of mixed ages). […] Each treatment was tested with 3-6 colonies; each colony was fed with a 60-100 g patty (solid diet) on the top feeder fitted with a mesh floor. Diet was fed on the first day and again on day 6; the quantity consumed was measured on day 6 and day 15. If no larvae or eggs/queen are observed by day 6 then the experiment is terminated. The number of capped brood cells was counted every 15 days. The number of bee seams was estimated during each inspection. Sugar syrup (34%) and water was provided in feeders inside the tent to prevent carbohydrate starvation and to stimulate foraging activity.

The next data set deals with bee gut. Kind of data set: Passage of dietary ergosterol across the bee gut. Type of data set: in vivo. As to conditions: ergosterol in bee diet.

Consider `CC(C)[C@@H](C)/C=C/[C@@H](C)[C@H]1CC[C@H]2C3=CC=C4C[C@@H](O)CC[C@]4(C)[C@H]3CC[C@]12C` [ergosterol], for which the Diet preference entry in data set [1] is “bees actively avoid feed containing ergosterol”. Also, in the data set on Nosema ceranae, the “Nosema population in the gut” value is “increases the Nosema population in the gut”. The Mortality result in the data set on Nosema ceranae (bees inoculated with Nosema ceranae) is “higher mortality”. Moreover, in the data set with adult worker honey bees, the Lifespan entry was “shorter lifespans”. In addition, the Brood production result in the data set with honey bees is reported as “less brood”. Further, the “Crossing of the bee gut” value in the data set with bee gut is reported as “does not cross the bee gut”.
